Test results: PubChem BioAssay (NCI)
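In this assay, cells in 96-well plates receive the compound at five concentrations for 48 hours. Endpoints are linearly interpolated between the surrounding concentrations. TGI: total growth inhibition.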

Test system: UO-31 renal
Assay: inhibition of tumour cell growth, NCI panel, 48 h

Row | SMILES | TGI
1 | N#Cc1n[nH]n(-c2ccc(Br)cc2)c1=O | > 100 µM
2 | CO[C@@]12C[C@@H](C)C3=CCC(C)=C3CC1=C(C)C(=O)O2 | > 100 µM
3 | N=C(N)C1CN(CCc2c[nH]c3ccccc23)C(=O)NC1=O (centres undefined) | > 100 µM
4 | CC1(C)[C@@H](Cn2ccc(=O)[nH]c2=O)CC[C@@]1(C)CO | > 100 µM
5 | Cn1c(=O)c2c(ncn2CCNC(CO)C(O)c2ccc([N+](=O)[O-])cc2)n(C)c1=O (centres undefined) | > 100 µM
6 | CCCNC(=O)NNC(=O)c1c[nH]c2nc(C)ccc2c1=O | > 100 µM
7 | C=CCCON(C(=O)OC(C)(C)C)C(C)(C)C | > 100 µM
8 | NC(N)=NS(=O)(=O)c1ccc(NNc2c3ccccc3nc3c(C(=O)Nc4ccc(S(=O)(=O)Nc5ncccn5)cc4)cccc23)cc1 | 83.7 µM
9 | O=c1oc2ccccc2cc1-c1cc2ccccn2c1 | > 100 µM
10 | CC(=O)CCn1c(=S)sc2ccccc21 | > 100 µM
11 | CC1CC(OP(=O)(OCc2ccccc2)OCc2ccccc2)[C@@H](OCc2ccccc2)C(OCc2ccccc2)C1OCc1ccccc1 (some centres undefined) | > 100 µM
12 | N#C[C@H](c1ccccn1)c1nc2ccccc2nc1Cl | > 100 µM
13 | O=C1COc2cccnc2N1CCCCO | > 100 µM
14 | O=C(O)CCCc1nc2c(n1Cc1ccccc1)C(=O)c1ccccc1C2=O | > 100 µM
15 | CCOC(=O)NC(Nc1ccc(C)cc1)(C(F)(F)F)C(F)(F)F | > 100 µM

Test system: SN12C renal
Assay: inhibition of tumour cell growth, NCI panel, 48 h

Row | SMILES | TGI
16 | Cc1ccc(S(=O)(=O)c2[nH]cc(/C(=C\C3CCCCC3)[N+](=O)[O-])c2C2CCCCC2)cc1 | 0.49 µM
17 | Nc1ccc2c(c1)C(=O)N1CCC[C@H]1C(=O)N2 | > 100 µM
18 | CO/N=C(\C(=O)OC(=NC1CCCCC1)NC1CCCCC1)c1csc(NC(c2ccccc2)(c2ccccc2)c2ccccc2)n1 | > 10 µM
19 | CC1(C)C(C#N)C1C1=C(N2CCOCC2)[C@]2(C)C(OC(=O)c3ccccc3)CC[C@@H]2C1 (some centres undefined) | > 100 µM
20 | N#Cc1n[nH]n(-c2ccc(Br)cc2)c1=O | > 100 µM
21 | N=C(N)C1CN(CCc2c[nH]c3ccccc23)C(=O)NC1=O (centres undefined) | > 100 µM
22 | CC1(C)[C@@H](Cn2ccc(=O)[nH]c2=O)CC[C@@]1(C)CO | > 100 µM
23 | Cn1c(=O)c2c(ncn2CCNC(CO)C(O)c2ccc([N+](=O)[O-])cc2)n(C)c1=O (centres undefined) | > 100 µM
24 | CCCNC(=O)NNC(=O)c1c[nH]c2nc(C)ccc2c1=O | > 100 µM
25 | C=CCCON(C(=O)OC(C)(C)C)C(C)(C)C | > 100 µM
26 | NC(N)=NS(=O)(=O)c1ccc(NNc2c3ccccc3nc3c(C(=O)Nc4ccc(S(=O)(=O)Nc5ncccn5)cc4)cccc23)cc1 | > 100 µM
27 | CC(=O)CCn1c(=S)sc2ccccc21 | > 100 µM
28 | CC1CC(OP(=O)(OCc2ccccc2)OCc2ccccc2)[C@@H](OCc2ccccc2)C(OCc2ccccc2)C1OCc1ccccc1 (some centres undefined) | > 100 µM
29 | CCO/C(O)=C(/C(=N)N1CCOCC1)C(=O)Nc1ccc(F)cc1 | > 100 µM
30 | C[C@H]1[C@H]2[C@H]3CC[C@@H]4[C@@]5(C)CC[C@H](O)C(C)(C)[C@@H]5CC[C@@]4(C)[C@]3(C)C[C@H](O)[C@@]2(C)C[C@H]2O[C@]21C | 37.8 µM
31 | N#C[C@H](c1ccccn1)c1nc2ccccc2nc1Cl | > 100 µM
32 | O=C1COc2cccnc2N1CCCCO | > 100 µM
33 | O=C(O)CCCc1nc2c(n1Cc1ccccc1)C(=O)c1ccccc1C2=O | > 100 µM
34 | CCOC(=O)NC(Nc1ccc(C)cc1)(C(F)(F)F)C(F)(F)F | > 100 µM

Test system: NCI-H522 lung
Assay: inhibition of tumour cell growth, NCI panel, 48 h

Row | SMILES | TGI
35 | Cc1ccc(S(=O)(=O)c2[nH]cc(/C(=C\C3CCCCC3)[N+](=O)[O-])c2C2CCCCC2)cc1 | 0.541 µM
36 | Nc1ccc2c(c1)C(=O)N1CCC[C@H]1C(=O)N2 | > 100 µM
37 | CO/N=C(\C(=O)OC(=NC1CCCCC1)NC1CCCCC1)c1csc(NC(c2ccccc2)(c2ccccc2)c2ccccc2)n1 | > 10 µM
38 | CC1(C)C(C#N)C1C1=C(N2CCOCC2)[C@]2(C)C(OC(=O)c3ccccc3)CC[C@@H]2C1 (some centres undefined) | > 100 µM
39 | N#Cc1n[nH]n(-c2ccc(Br)cc2)c1=O | > 100 µM
40 | Cn1c(=O)c2c(ncn2CCNC(CO)C(O)c2ccc([N+](=O)[O-])cc2)n(C)c1=O (centres undefined) | > 100 µM
41 | CCCNC(=O)NNC(=O)c1c[nH]c2nc(C)ccc2c1=O | > 100 µM
42 | C=CCCON(C(=O)OC(C)(C)C)C(C)(C)C | > 100 µM
43 | NC(N)=NS(=O)(=O)c1ccc(NNc2c3ccccc3nc3c(C(=O)Nc4ccc(S(=O)(=O)Nc5ncccn5)cc4)cccc23)cc1 | 45.9 µM
44 | O=c1oc2ccccc2cc1-c1cc2ccccn2c1 | > 100 µM
45 | CC(=O)CCn1c(=S)sc2ccccc21 | > 100 µM
46 | CC1CC(OP(=O)(OCc2ccccc2)OCc2ccccc2)[C@@H](OCc2ccccc2)C(OCc2ccccc2)C1OCc1ccccc1 (some centres undefined) | > 100 µM
47 | CCO/C(O)=C(/C(=N)N1CCOCC1)C(=O)Nc1ccc(F)cc1 | > 100 µM
48 | C[C@H]1[C@H]2[C@H]3CC[C@@H]4[C@@]5(C)CC[C@H](O)C(C)(C)[C@@H]5CC[C@@]4(C)[C@]3(C)C[C@H](O)[C@@]2(C)C[C@H]2O[C@]21C | 48.9 µM
49 | N#C[C@H](c1ccccn1)c1nc2ccccc2nc1Cl | > 100 µM
50 | O=C1COc2cccnc2N1CCCCO | > 100 µM
51 | O=C(O)CCCc1nc2c(n1Cc1ccccc1)C(=O)c1ccccc1C2=O | > 100 µM
52 | CCOC(=O)NC(Nc1ccc(C)cc1)(C(F)(F)F)C(F)(F)F | > 100 µM

Test system: LOX IMVI melanoma
Assay: inhibition of tumour cell growth, NCI panel, 48 h

Row | SMILES | TGI
53 | Cc1ccc(S(=O)(=O)c2[nH]cc(/C(=C\C3CCCCC3)[N+](=O)[O-])c2C2CCCCC2)cc1 | 0.439 µM
54 | Nc1ccc2c(c1)C(=O)N1CCC[C@H]1C(=O)N2 | > 100 µM
55 | CO/N=C(\C(=O)OC(=NC1CCCCC1)NC1CCCCC1)c1csc(NC(c2ccccc2)(c2ccccc2)c2ccccc2)n1 | > 10 µM
56 | N#Cc1n[nH]n(-c2ccc(Br)cc2)c1=O | > 100 µM
57 | CO[C@@]12C[C@@H](C)C3=CCC(C)=C3CC1=C(C)C(=O)O2 | > 100 µM
58 | N=C(N)C1CN(CCc2c[nH]c3ccccc23)C(=O)NC1=O (centres undefined) | > 100 µM
59 | CC1(C)[C@@H](Cn2ccc(=O)[nH]c2=O)CC[C@@]1(C)CO | > 100 µM
60 | Cn1c(=O)c2c(ncn2CCNC(CO)C(O)c2ccc([N+](=O)[O-])cc2)n(C)c1=O (centres undefined) | > 100 µM
61 | CCCNC(=O)NNC(=O)c1c[nH]c2nc(C)ccc2c1=O | > 100 µM
62 | C=CCCON(C(=O)OC(C)(C)C)C(C)(C)C | > 100 µM
63 | O=c1oc2ccccc2cc1-c1cc2ccccn2c1 | > 100 µM
64 | CC(=O)CCn1c(=S)sc2ccccc21 | > 100 µM
65 | CC1CC(OP(=O)(OCc2ccccc2)OCc2ccccc2)[C@@H](OCc2ccccc2)C(OCc2ccccc2)C1OCc1ccccc1 (some centres undefined) | > 100 µM
66 | CCO/C(O)=C(/C(=N)N1CCOCC1)C(=O)Nc1ccc(F)cc1 | > 100 µM
67 | C[C@H]1[C@H]2[C@H]3CC[C@@H]4[C@@]5(C)CC[C@H](O)C(C)(C)[C@@H]5CC[C@@]4(C)[C@]3(C)C[C@H](O)[C@@]2(C)C[C@H]2O[C@]21C | 39.1 µM
68 | O=C1COc2cccnc2N1CCCCO | > 100 µM
69 | O=C(O)CCCc1nc2c(n1Cc1ccccc1)C(=O)c1ccccc1C2=O | > 100 µM
70 | CCOC(=O)NC(Nc1ccc(C)cc1)(C(F)(F)F)C(F)(F)F | > 100 µM

Test system: OVCAR-4 ovarian
Assay: inhibition of tumour cell growth, NCI panel, 48 h

Row | SMILES | TGI
71 | Cc1ccc(S(=O)(=O)c2[nH]cc(/C(=C\C3CCCCC3)[N+](=O)[O-])c2C2CCCCC2)cc1 | 1.28 µM
72 | Nc1ccc2c(c1)C(=O)N1CCC[C@H]1C(=O)N2 | > 100 µM
73 | CO/N=C(\C(=O)OC(=NC1CCCCC1)NC1CCCCC1)c1csc(NC(c2ccccc2)(c2ccccc2)c2ccccc2)n1 | > 10 µM
74 | CC1(C)C(C#N)C1C1=C(N2CCOCC2)[C@]2(C)C(OC(=O)c3ccccc3)CC[C@@H]2C1 (some centres undefined) | > 100 µM
75 | N#Cc1n[nH]n(-c2ccc(Br)cc2)c1=O | > 100 µM
76 | CO[C@@]12C[C@@H](C)C3=CCC(C)=C3CC1=C(C)C(=O)O2 | > 100 µM
77 | N=C(N)C1CN(CCc2c[nH]c3ccccc23)C(=O)NC1=O (centres undefined) | > 100 µM
78 | CC1(C)[C@@H](Cn2ccc(=O)[nH]c2=O)CC[C@@]1(C)CO | > 100 µM
79 | Cn1c(=O)c2c(ncn2CCNC(CO)C(O)c2ccc([N+](=O)[O-])cc2)n(C)c1=O (centres undefined) | > 100 µM
80 | CCCNC(=O)NNC(=O)c1c[nH]c2nc(C)ccc2c1=O | > 100 µM
81 | NC(N)=NS(=O)(=O)c1ccc(NNc2c3ccccc3nc3c(C(=O)Nc4ccc(S(=O)(=O)Nc5ncccn5)cc4)cccc23)cc1 | > 100 µM
82 | O=c1oc2ccccc2cc1-c1cc2ccccn2c1 | > 100 µM
83 | CC(=O)CCn1c(=S)sc2ccccc21 | > 100 µM
84 | CC1CC(OP(=O)(OCc2ccccc2)OCc2ccccc2)[C@@H](OCc2ccccc2)C(OCc2ccccc2)C1OCc1ccccc1 (some centres undefined) | > 100 µM
85 | CCO/C(O)=C(/C(=N)N1CCOCC1)C(=O)Nc1ccc(F)cc1 | > 100 µM
86 | C[C@H]1[C@H]2[C@H]3CC[C@@H]4[C@@]5(C)CC[C@H](O)C(C)(C)[C@@H]5CC[C@@]4(C)[C@]3(C)C[C@H](O)[C@@]2(C)C[C@H]2O[C@]21C | > 100 µM
87 | N#C[C@H](c1ccccn1)c1nc2ccccc2nc1Cl | > 100 µM
88 | O=C(O)CCCc1nc2c(n1Cc1ccccc1)C(=O)c1ccccc1C2=O | 77.8 µM
89 | CCOC(=O)NC(Nc1ccc(C)cc1)(C(F)(F)F)C(F)(F)F | > 100 µM
